Results published in patent US20110021440A1, “APOPTOTIC PATHWAY TARGETING FOR THE DIAGNOSIS AND TREATMENT OF CANCER” (UNIVERSITY OF MARYLAND, BALTIMORE, priority 2007, published 2011).
Entries after “also recorded” stand apart in the source; their conditions may differ. Peptide text beside a SMILES is read from it. * marks the point of attachment. Cbz = O=C(OCc1ccccc1)*

Key:
MCF10A cells [1] = test: Apoptosis / cell death in MCF10A cells (PARP cleavage); type: cell-based, human; conditions: for cell death: 24 h, TRAIL 1 μg/mL, CHX 30 μg/mL, DOX 3 μg/mL, not shown; for apoptosis as assessed by PARP cleavage: 24 hours
Procedure: (§1) FIG. 1A relates to human mammary epithelial cells (MCF10A) grown for 24 h in the presence or absence of a proteasomal inhibitor (MG132, 5 μM). […] Lysates from Ramos cells are included as a positive control for Bik and parallel blotting for β-actin confirm equivalent levels of protein. FIG. 1B relates to Bik protein increases after forced cell rounding with the actin polymerization inhibitor, Latrunculin-A (LA, 5 μM for 24 h). Bik protein is low in standard growth media (GROW). […] Cell rounding may therefore act selectively to upregulate Bik rather than through a nonspecific apoptotic signal.
(§2) Several apoptotic stimuli were tested for their ability to induce Bik expression in MCF10A cells were evaluated (FIG. 7A). Compared to a Ramos positive control lysate, MCF10A cells express very low levels of Bik under normal growth conditions. […] Bik expression in MCF10A cells increased after treatment with Latrunculin-A (LA), an inhibitor of the actin cytoskeleton that causes cell rounding (Martin et al., Mol. Cell. Biol., 21:6529-6536 (2001)). Apoptosis caused by cell rounding and cytoskeletal disruption has been termed amorphosis (Martin et al., Biochim. Biophys. Acta., 1692:145-157 (2004)), and resistance to amorphosis is thought to contribute to metastatic potential by allowing tumor cells to tolerate the cell shape changes that occur during bloodborne dissemination (Martin et al., Oncogene, 23:4641-4645 (2004); Mehlen et al., Nat. Rev. Cancer, 6:449-458 (2006); Pinkas et al., Mol. Cancer. Res., 2:551-556 (2004)). […] Since Bik is induced by cell rounding, its loss in tumors may reduce their apoptotic sensitivity and yield a greater metastatic potential. In fact, reduced expression of Bik predicts increased nodal involvement in colorectal cancer (Bandres et al., Oncol. Rep., 12:287-292 (2004)). Conversely, forced expression of Bik inhibits systemic breast tumor growth (Zou et al., Cancer Res., 62:8-12 (2002)).

Bik protein [2] = test: Western blotting of Bik protein in MCF10A cells; type: cell-based, human; conditions: 24 h
Procedure: as §1
(§3) FIG. 6 illustrates Bik protein is degraded by the proteasome but remains reduced in tumor cell lines. Protein lysates from control cells (Ramos), nontumorigenic human mammary epithelial cells (MCF10A) or 11 human breast tumor cell lines were immunoblotted for Bik and b-actin as a loading control. […] Bik protein remained low in the tumor cell lines, even in the presence of MG132.
(§4) FIG. 7 illustrates tumor lines with reduced Bik resist apoptosis by cytoskeletal disruption.
(§5) Bik values were normalized to amplification of GAPDH, which was highly consistent in all cell lines and dissociation curves confirmed specificity with a single major amplification product in each reaction type (FIG. 5B). Despite the detectable levels of mRNA, Bik protein levels were very low in the tumor lines and MCF10A cells under normal growth conditions. Since Bik can be degraded by the proteasome (Zhu et al., Oncogene, 24:4993-4999 (2005)), cells were treated with MG132 to inhibit the proteasome and increase detectable Bik levels (FIG. 6). […] Downregulation of Bik in MDA-MB-453 cells therefore occurs independently from mRNA expression. However, loss of Bik function as a common event in breast tumors continues to be supported by these finding.
as §2

[3] = tested on: tubulin microtentacles of MDA-436 cells; test: DIC imaging of tubulin microtentacles in detached breast tumor cells; type: cell-based; conditions: tetracaine 100 μM
Procedure: (§6) FIG. 23 illustrates methods used to image circulating tumor cells and microtentacles. Surgically-isolated blood vessels from mice are sutured to the ends of glass micropipettes to allow solution flow through the vessels. After endothelial labeling with Fluo-4 (green), MDA-436 breast tumor cells, stained with QDot-655 (red), were injected and allowed to circulate through the vessel. […] In the right panel the effects of microtentacle inhibitors are imaged with DIC microscopy. Detachment of vimentin-expressing breast tumor cell lines, like MDA-231 and MDA-436 (pictured, FIG. 23 D), stimulates the formation of rapidly-moving tubulin microtentacles (Whipple et al., “Vimentin filaments support extension of tubulin-based microtentacles in detached breast tumor cells”, Cancer Research, (2008), (under revision)). We added the kinesin inhibitor, tetracaine (100 μM) (Miyamoto et al., Biophys. J., 78:940-949 (2000)) and collected DIC images every 30 seconds (Yoon et al., “Microtentacles in detached breast tumor cells require kinesin motor activity”, manuscript in preparation (2008)). After approximately 10 minutes, tubulin microtentacles collapse dramatically (FIG. 23 E). This concentration of drug is non-toxic to these cells, even after 24 hours.

MDA-436 cells = test: Toxicity of microtentacle inhibitors to breast tumor cells; type: cell-based; conditions: 100 μM, even after 24 hours
Procedure: as §6

MCF10A cells [4] = type: cell-based
Procedure: as §4
(§7) FIG. 13 illustrates cells expressing the survival proteins Bcl-2 or Bcl-xL are highly resistant to cell death induced by cell rounding (LA). […] Nearly 60% of cells overexpressing Bcl-xL remain viable even at concentrations of LA as high as 20 μM. […] Viability was measured with XTT and each point represents the mean+/−S.D. for triplicate samples.
FIG. 19 illustrates that YC137 remains toxic to normal cells (MCF10A). […] Such compounds would not be expected to be effective therapies due to likely side effects on normal tissues. If compounds were only toxic to rounded cells, that would be acceptable, since normal tissues are attached and not rounded.
as §2

[5] = tested on: MCF10A cells stably expressing Bcl-2 (10A-Bcl2); test: Cell viability assay (XTT), 10A-Bcl2 cells; type: cell-based
Procedure: Viability was measured with XTT and each point represents the mean+/−S.D. for triplicate samples.

Bik protein [6] = test: Immunoblot of Bik protein in 11 human breast tumor cell lines; type: cell-based; conditions: +MG132 5 μM, 24 h; compared with MCF10A
Excerpt: as §3, §5

[7] = tested on: Bax- and Bak-deficient MEFs (DKO); conditions: cited from earlier work
BCRP protein [8] = test: Western blotting of BCRP in Bt-474 cells; type: cell-based, human; conditions: LA 5 μM, 24 h, rounded
Procedure: (§8) FIG. 12 illustrates cell rounding also upregulates the BCRP drug resistance protein. […] MCF10A mammary epithelial cells or MCF-7 and Bt-474 breast tumor cells were grown for 24 h in standard media (Control), serum-free conditions (DMEM) or forced cell rounding through inhibition of actin polymerization with Latrunculin-A (LA, 5 μM—Rounded). […] Levels of actin remain constant.

Bik protein [9] = test: Western blotting of Bik protein in MCF10A cells stably expressing Bcl-2; type: cell-based, human; conditions: forced cell rounding, LA 5 μM, 24 h
Excerpt: (§9) MCF10A or MCF-7 cells show comparably low levels of Bik. […] This increase in Bik is so strong that the moderate increases observed with LA in MCF10A cells (FIG. 7B) cannot even be detected here due to the short exposure times necessary to prevent oversaturating signal.
as §9, with “FIG. 15 illustrates apoptotically-resistant cell accumulate high” for “MCF10A or MCF-7 cells show comparably low”, “Bik when rounded.” for “Bik.”, “7A)” for “7B)”

BCRP protein [10] = test: Western blotting of BCRP in MCF10A cells; type: cell-based, human; conditions: LA 5 μM, 24 h, rounded
Procedure: as §8

breast tumor cell lines = test: Cell viability assay (XTT), breast tumor cell lines; type: cell-based, human; conditions: tumor cell lines with reduced Bik; up to very high doses, 5 μM LA; listed as LA
Procedure: as §4
as §2, with “Conversely, forced expression of Bik inhibits systemic breast tumor growth (Zou et al., Cancer Res., 62:8-12 (2002)).” left out

BCRP protein [11] = test: Western blotting of BCRP in MCF-7 cells; type: cell-based, human; conditions: LA 5 μM, 24 h, rounded
Procedure: as §8

[12] = tested on: MCF10A cells stably expressing Bcl-xL; test: Cell viability assay (XTT), MCF10A cells expressing Bcl-xL; type: cell-based, human
Procedure: as §7

Bik protein [13] = test: Western blotting of Bik protein in MCF10A cells stably expressing Bcl-xL; type: cell-based, human; conditions: forced cell rounding, LA 5 μM, 24 h
Excerpt: as §9
as §9, with “FIG. 15 illustrates apoptotically-resistant cell accumulate high” for “MCF10A or MCF-7 cells show comparably low”, “Bik when rounded.” for “Bik.”, “7A)” for “7B)”

[14] = LA 5 μM, TRAIL 1 μg/mL, CHX 30 μg/mL, DOX 3 μg/mL
[15] = LA 24 h, versus parental MCF10A

For C[C@@H]1C[C@@H]([C@H](O)CC2CC(=O)NC(=O)C2)C(=O)[C@@H](C)C1 [Cycloheximide], the cell death (MCF10A cells [1]) was “causes cell death comparable to LA”, the “apoptosis as assessed by PARP cleavage” value (MCF10A cells [1]) was “does induce apoptosis” and the “Bik protein (Western blotting)” value (Bik protein [2]; [14]) was “do not increase Bik levels”. The “Bik protein (Western blotting)” value (Bik protein [2]; LA 5 μM, TRAIL 1 μg/mL, CHX 30 μg/mL, DOX 3 μg/mL, listed as cycloheximide) was “did not induce significant expression of Bik; also recorded: did not increase Bik protein”.

For CCCCNc1ccc(C(=O)OCCN(C)C)cc1 [tetracaine], the “time to collapse of tubulin microtentacles” value [3] was “approximately 10 minutes” and the “toxicity to the cells” value (MDA-436 cells) was “non-toxic”.

In the case of COC(=O)N[C@@H](CCSC)C(=O)Oc1ccc(Nc2nc3c(s2)C(=O)c2ccccc2C3=O)cc1 [YC-137], the “toxicity to attached and rounded cells” value (MCF10A cells [4]) is reported as “toxic to both attached and rounded MCF10A cells”, the “viability (XTT)” value (MCF10A cells [4]) is reported as “lose viability” and the “cell death on combining with cell rounding” value (MCF10A cells [4]; YC-137 with LA 2.5 μM, 24 h) is reported as “increases cell death”. For the same molecule, the “decrease in cell viability (XTT) compared to YC-137 alone” value ([5]; 1 μg/ml YC-137 combined with 2.5 μM LA) was “greater than 2 fold”, the “cell viability (XTT) compared to YC-137 alone” value ([5]; YC-137 1 μg/ml or 2.5 μg/ml with LA 2.5 μM, 24 h, P<0.05) was “significant decrease in cell viability” and the “doses at which YC-137 causes toxicity on its own” value ([5]; YC-137 alone) was “higher than 1 μM”. The “effect on rounded versus attached cells” value ([5]; YC-137 at lower levels) was “affects rounded cells more than attached cells” and the “cell death on combining with cell rounding” value ([5]; YC-137 with LA 2.5 μM, 24 h) was “increases cell death”.

In the case of CC(C)C[C@@H](C=O)NC(=O)[C@H](CC(C)C)NC(=O)[C@H](CC(C)C)NC(=O)OCc1ccccc1 [MG132] (Cbz-Leu-Leu-Leu-aldehyde), the “Bik protein (immunoblot)” value (Bik protein [6]) is reported as “significantly lower levels of Bik protein; also recorded: remained low” and the “Bik protein (Western blotting)” value (Bik protein [2]; MG132 5 μM) is reported as “strong induction of Bik protein; also recorded: strongly upregulated; also recorded: strongly increased”.

In the case of BH3I-1, the “toxicity against cells that lack Bax and Bak” value [7] is given as “toxic against cells that lack Bax and Bak”.

For COc1cccc2c1C(=O)c1c(O)c3c(c(O)c1C2=O)C[C@@](O)(C(=O)CO)C[C@@H]3O[C@H]1C[C@H](N)[C@H](O)[C@H](C)O1 [Doxorubicin], the cell death (MCF10A cells [1]) was “causes cell death comparable to LA”, the “apoptosis as assessed by PARP cleavage” value (MCF10A cells [1]) was “does induce apoptosis” and the “Bik protein (Western blotting)” value (Bik protein [2]; [14]) was “did not induce significant expression of Bik; also recorded: do not increase Bik levels; also recorded: did not increase Bik protein”.

With C/C1=C/C(=O)O[C@@H]2C[C@@H](CC[C@H](C)/C=C\C=C\CC1)O[C@@](O)([C@@H]1CSC(=O)N1)C2 [Latrunculin-A] the “BCRP protein (Western blotting)” value (BCRP protein [8]) was “not”, the “Bik protein (Western blotting)” value (Bik protein [9]) was “dramatic increases in Bik protein” and the “BCRP protein (Western blotting)” value (BCRP protein [10]) was “increases BCRP protein”. The “resistance to LA-induced apoptosis (XTT viability)” value (breast tumor cell lines) was “highly resistant to LA-induced apoptosis; also recorded: significant resistance to apoptosis”, the “BCRP protein (Western blotting)” value (BCRP protein [11]) was “increases BCRP protein” and the “resistance to apoptosis induced by cell rounding (XTT)” value [12, 15] was “significantly resistant”. For the same molecule, the “cells remaining viable (XTT)” value ([12]; LA as high as 20 μM, 24 h) was ~60%, the “LA concentration at which cell death is maximal” value (MCF10A cells [4]) was 5 µM and the “cell viability (XTT)” value (MCF10A cells [4]; LA 24 h, doses as low as 2.5 μM) was “drops significantly”. The “resistance to apoptosis induced by cell rounding (XTT)” value [5, 15] was “significantly resistant”, the “tolerated doses of LA” value ([5]; cell rounding) was ≤ 20 µM and the “Bik protein (Western blotting)” value (Bik protein [13]) was “dramatic increases in Bik protein”. The “Bik protein (Western blotting)” value (Bik protein [2]; [14]) was “increases; also recorded: did increase Bik significantly”.

B1: TRAIL: apoptotic stimulus (protein, UniProt P50591 1-281, looked up)
Tumor necrosis factor ligand …: MAMMEVQGGPSLGQTCVLIVIFTVLLQSLCVAVTYVYFTNELKQMQDKYSKSGIACFLKEDDSYWDPNDEESMNSPCWQVKWQLRQLVRKMILRTSEETISTVQEKQQNISPLVRERGPQRVAAHITGTRGRSNTLSSPNSKNEKALGRKINSWESSRSGHSFLSNLHLRNGELVIHEKGFYYIYSQTYFRFQEEIKENTKNDKQMVQYIYKYTSYPDPILLMKSARNSCWSKDAEYGLYSIYQGGIFELKENDRIFVSVTNEHLIDMDHEASFFGAFLVG
With B1 the cell death (MCF10A cells [1]) was “causes cell death comparable to LA”, the “apoptosis as assessed by PARP cleavage” value (MCF10A cells [1]) was “does induce apoptosis” and the “Bik protein (Western blotting)” value (Bik protein [2]; [14]) was “did not induce significant expression of Bik; also recorded: do not increase Bik levels; also recorded: did not increase Bik protein”.
